Assay results taken from patent US7217735B1, “Methods and compositions for enhancing delivery of therapeutic agents to tissues” (priority 1999, dated 2007).

Assays:
FaDu tumor histocultures = assay: Apoptotic fraction and cell density with or without apoptosis-inducing pretreatment, in vitro; format: cell-based, human; set-up: Cell density: unit not given here
Method: Drug treatment was as previously described.
Two studies were performed.

FaDu xenograft tumors = assay: Paclitaxel efflux from tumor histocultures; format: in vitro ADME, human
patient ovarian tumors = assay: Paclitaxel uptake in tumor histocultures
Method: The specimens were washed with culture medium for three times and dissected into about 1 mm^3 fragments under sterile conditions. The culture medium consisted of a 1:1 mixture of MEM/DMEM for patient tumors, MEM for FaDu xenografts, and RPMI1640 for PC3 xenografts, supplemented with 9% heat-inactivated FBS, 2 mM glutamine, 0.1 mM non-essential amino acids (only for MEM/DMEM), 90:g/ml gentamicin and 90:g/ml cefotaxime sodium. Five histoculture fragments were placed on a 1 cm^2 piece of presoaked collagen gel and incubated with 4 ml culture medium in 6-well plates. After 2 to 4 days, tumor histocultures were used to study the kinetics of drug penetration.
At predetermined times, 100 μl of medium was taken from each well and the histocultures were removed from the plates. The histocultures were blot-dried on a filter paper and their weights were measured. One hundred 1 of medium or tumor samples were mixed with 0.5 ml of Solvable tissue/gel solubilizer, incubated at 50° C. in an oven overnight, and analyzed for total radioactivity using liquid scintillation counting. […] Drug concentration in tissue was calculated as (drug amount) divided by (tissue weight) and was expressed in molar terms.
The study design of experiments using patient tumors was dictated by the size of the specimens. On some occasions, specimens from an individual patient were only sufficient to study drug uptake and efflux at one or more but not all drug concentrations. A total of 7 head and neck tumors and 3 ovarian tumors were used. For the FaDu xenograft tumor, specimens from individual animals were sufficiently large that each tumor was used for studying uptake and efflux at all four drug concentrations.
The statistical significance of the differences among patient (head and neck and ovarian, n=6) and FaDu (n=3) tumors, at equal initial medium concentrations, were analyzed by the two-tailed unpaired Student's t-test.

[1] = 10 nM [3H]paclitaxel, 48 hr, with pretreatment by 1:M nonradiolabeled paclitaxel
[2] = 10 nM [3H]paclitaxel, 48 hr, without pretreatment
[3] = 10 nM [3H]paclitaxel, 72 hr, with pretreatment by 1:M nonradiolabeled paclitaxel
[4] = 10 nM [3H]paclitaxel, 72 hr, without pretreatment
[5] = 50 nM [3H]paclitaxel, 4 hr, with pretreatment by 1:M nonradiolabeled paclitaxel
[6] = 50 nM [3H]paclitaxel, 4 hr, without pretreatment
[7] = 50 nM [3H]paclitaxel, 16 hr, with pretreatment by 1:M nonradiolabeled paclitaxel
[8] = 50 nM [3H]paclitaxel, 16 hr, without pretreatment
[9] = 50 nM [3H]paclitaxel, 24 hr, with pretreatment by 1:M nonradiolabeled paclitaxel
[10] = 50 nM [3H]paclitaxel, 24 hr, without pretreatment
[11] = 50 nM [3H]paclitaxel, 32 hr, with pretreatment by 1:M nonradiolabeled paclitaxel
[12] = 50 nM [3H]paclitaxel, 32 hr, without pretreatment
[13] = 50 nM [3H]paclitaxel, 48 hr, with pretreatment by 1:M nonradiolabeled paclitaxel
[14] = 50 nM [3H]paclitaxel, 48 hr, without pretreatment
[15] = 50 nM [3H]paclitaxel, 72 hr, with pretreatment by 1:M nonradiolabeled paclitaxel
[16] = 50 nM [3H]paclitaxel, 72 hr, without pretreatment
[17] = 50 nM x 24 hr, 24 hr after initiation of treatment
[18] = 50 nM x 24 hr, 36 hr after initiation of treatment
[19] = 600 nM x 1 hr, 23 hr later 50 nM x 12 hr, 24 hr after initiation of treatment
[20] = 600 nM x 1 hr, 23 hr later 50 nM x 12 hr, 36 hr after initiation of treatment
[21] = initial Cmedium 120 nM for 24 hr, at 24 hr post-treatment
[22] = initial Cmedium 120 nM for 24 hr, at 72 hr post-treatment
[23] = initial Cmedium 1,200 nM for 24 hr, at 24 hr post-treatment
[24] = initial Cmedium 1,200 nM for 24 hr, at 72 hr post-treatment

In the case of `CC(=O)O[C@H]1C(=O)[C@@]2(C)[C@H]([C@H](OC(=O)c3ccccc3)[C@]3(O)C[C@H](OC(=O)[C@H](O)[C@@H](NC(=O)c4ccccc4)c4ccccc4)C(C)=C1C3(C)C)[C@]1(OC(C)=O)CO[C@@H]1C[C@@H]2O` [paclitaxel], the Apoptotic fraction (FaDu tumor histocultures; [1]) is reported as 34.9 ± 5.2%, the Cell density (FaDu tumor histocultures; [1]) is reported as 62.3 ± 3.1 and the Apoptotic fraction (FaDu tumor histocultures; [2]) is reported as 9.18 ± 1.31%. For the same molecule, the Cell density (FaDu tumor histocultures; [2]) was 77.8 ± 3.0, the Apoptotic fraction (FaDu tumor histocultures; [3]) was 31.0 ± 4.4% and the Cell density (FaDu tumor histocultures; [3]) was 61.0 ± 2.2. It also gave an Apoptotic fraction (FaDu tumor histocultures; [4]) of 11.0 ± 1.7%, a Cell density (FaDu tumor histocultures; [4]) of 82.6 ± 2.2 and an Apoptotic fraction (FaDu tumor histocultures; [5]) of 26.3 ± 5.4%. The Cell density (FaDu tumor histocultures; [5]) was 63.1 ± 4.5, the Apoptotic fraction (FaDu tumor histocultures; [6]) was 2.74 ± 0.12% and the Cell density (FaDu tumor histocultures; [6]) was 85.8 ± 3.6. The Apoptotic fraction (FaDu tumor histocultures; [7]) was 36.0 ± 3.9%, the Cell density (FaDu tumor histocultures; [7]) was 60.8 ± 4.9 and the Apoptotic fraction (FaDu tumor histocultures; [8]) was 7.97 ± 2.03%. It also gave a Cell density (FaDu tumor histocultures; [8]) of 83.9 ± 3.3, an Apoptotic fraction (FaDu tumor histocultures; [9]) of 36.4 ± 2.0% and a Cell density (FaDu tumor histocultures; [9]) of 58.3 ± 1.1. The Apoptotic fraction (FaDu tumor histocultures; [10]) was 17.0 ± 2.8%, the Cell density (FaDu tumor histocultures; [10]) was 77.0 ± 3.8 and the Apoptotic fraction (FaDu tumor histocultures; [11]) was 37.4 ± 4.5%. For the same molecule, the Cell density (FaDu tumor histocultures; [11]) was 53.2 ± 2.1, the Apoptotic fraction (FaDu tumor histocultures; [12]) was 19.1 ± 2.5% and the Cell density (FaDu tumor histocultures; [12]) was 71.2 ± 4.6. It also gave an Apoptotic fraction (FaDu tumor histocultures; [13]) of 39.8 ± 3.1%, a Cell density (FaDu tumor histocultures; [13]) of 53.6 ± 2.4 and an Apoptotic fraction (FaDu tumor histocultures; [14]) of 28.3 ± 2.9%. For the same molecule, the Cell density (FaDu tumor histocultures; [14]) was 68.8 ± 2.5, the Apoptotic fraction (FaDu tumor histocultures; [15]) was 37.9 ± 3.4% and the Cell density (FaDu tumor histocultures; [15]) was 47.8 ± 3.2. For the same molecule, the Apoptotic fraction (FaDu tumor histocultures; [16]) was 27.2 ± 3.0%, the Cell density (FaDu tumor histocultures; [16]) was 61.1 ± 2.8 and the Apoptotic fraction (FaDu tumor histocultures; [17]) was 15.2%. It also gave a Cell density (FaDu tumor histocultures; [17]) of 71.3 ± 2.9, an Apoptotic fraction (FaDu tumor histocultures; [18]) of 17.0% and a Cell density (FaDu tumor histocultures; [18]) of 72.6 ± 3.2. The Apoptotic fraction (FaDu tumor histocultures; [19]) was 20.3 ± 4.3%, the Cell density (FaDu tumor histocultures; [19]) was 60.9 ± 1.3 and the Apoptotic fraction (FaDu tumor histocultures; [20]) was 25.4 ± 3.4%. The Cell density (FaDu tumor histocultures; [20]) was 62.4 ± 4.2, the “apoptosis caused by pretreatment” value (FaDu tumor histocultures; 1,000 nM nonradiolabeled paclitaxel for 3 hr, at 24 hr, preliminary study) was roughly 30% and the Cmedium (FaDu xenograft tumors; [21]) was 0.989 ± 0.228 nM. The Ctumor (FaDu xenograft tumors; [21]) was 3.88 ± :M, the Cmedium (FaDu xenograft tumors; [22]) was 1.42 ± 0.18 nM and the Ctumor (FaDu xenograft tumors; [22]) was 3.84 ± 1.04 :M. For the same molecule, the Cmedium (FaDu xenograft tumors; [23]) was 12.2 ± 1.3 nM, the Ctumor (FaDu xenograft tumors; [23]) was 23.2 ± :M and the Cmedium (FaDu xenograft tumors; [24]) was 18.9 ± 5.5 nM. The Ctumor (FaDu xenograft tumors; [24]) was 17.7 ± 3.7 :M, the Mass balance (patient ovarian tumors; initial Cmedium 12 nM) was 89.3 ± 5.4% and the “Steady state Cmedium” value (patient ovarian tumors; initial Cmedium 12 nM) was 10.6 ± 0.7 nM. The “Steady state Ctumor” value (patient ovarian tumors; initial Cmedium 12 nM) was 1.32 ± 0.31 :M, the Mass balance (patient ovarian tumors; initial Cmedium 120 nM) was 84.5 ± 7.3% and the “Steady state Cmedium” value (patient ovarian tumors; initial Cmedium 120 nM) was 86.4 ± 2.3 nM. For the same molecule, the “Steady state Ctumor” value (patient ovarian tumors; initial Cmedium 120 nM) was 2.86 ± 1.28 :M, the Mass balance (patient ovarian tumors; initial Cmedium 1,200 nM) was 85.2 ± 2.5% and the “Steady state Cmedium” value (patient ovarian tumors; initial Cmedium 1,200 nM) was 870 ± 2.6 nM. The “Steady state Ctumor” value (patient ovarian tumors; initial Cmedium 1,200 nM) was 30.1 ± 11.7 :M, the Mass balance (patient ovarian tumors; initial Cmedium 12,000 nM) was 93.3 ± 4.5% and the “Steady state Cmedium” value (patient ovarian tumors; initial Cmedium 12,000 nM) was 10,500 ± 920 nM. For the same molecule, the “Steady state Ctumor” value (patient ovarian tumors; initial Cmedium 12,000 nM) was 211 ± 80 :M.
